Assay results reported in ChEMBL document CHEMBL1629583, “Establishment of in vitro susceptibility testing methodologies and comparative activities of piperacillin in combination with the penem {beta}-lactamase inhibitor BLI-489” (2009).

Legend:
Format in all cases: functional
Pseudomonas aeruginosa = experiment: Antimicrobial activity against Pseudomonas aeruginosa clinical isolate after 18 to 22 hrs by broth microdilution method
Haemophilus influenzae [1] = experiment: Antimicrobial activity against beta-lactamase-producing Haemophilus influenzae clinical isolate after 18 to 22 hrs by broth microdilution method
Haemophilus influenzae [2] = experiment: Antimicrobial activity against beta-lactamase-negative Haemophilus influenzae clinical isolate after 18 to 22 hrs by broth microdilution method
[3] = system: Haemophilus parainfluenzae; experiment: Antimicrobial activity against Haemophilus parainfluenzae clinical isolate after 18 to 22 hrs by broth microdilution method
Moraxella catarrhalis = experiment: Antimicrobial activity against Moraxella catarrhalis clinical isolate after 18 to 22 hrs by broth microdilution method
[4] = system: Staphylococcus epidermidis; experiment: Antimicrobial activity against methicillin-resistant Staphylococcus epidermidis clinical isolate after 18 to 22 hrs by broth microdilution method
[5] = system: Staphylococcus epidermidis; experiment: Antimicrobial activity against methicillin-susceptible Staphylococcus epidermidis clinical isolate after 18 to 22 hrs by broth microdilution method
Enterococcus faecalis = experiment: Antimicrobial activity against Enterococcus faecalis clinical isolate after 18 to 22 hrs by broth microdilution method
Enterococcus faecium [6] = experiment: Antimicrobial activity against Enterococcus faecium clinical isolate after 18 to 22 hrs by broth microdilution method
Enterococcus faecium [7] = experiment: Antimicrobial activity against vancomycin-resistant Enterococcus faecium clinical isolate after 18 to 22 hrs by broth microdilution method
Enterococcus avium = experiment: Antimicrobial activity against Enterococcus avium clinical isolate after 18 to 22 hrs by broth microdilution method
Streptococcus pneumoniae [8] = experiment: Antimicrobial activity against penicillin-intermediate Streptococcus pneumoniae clinical isolate after 18 to 22 hrs by broth microdilution method
Streptococcus pneumoniae [9] = experiment: Antimicrobial activity against penicillin-resistant Streptococcus pneumoniae clinical isolate after 18 to 22 hrs by broth microdilution method
Streptococcus pyogenes = experiment: Antimicrobial activity against Streptococcus pyogenes clinical isolate after 18 to 22 hrs by broth microdilution method
[10] = system: Enterococcus casseliflavus; experiment: Antimicrobial activity against Enterococcus casseliflavus clinical isolate after 18 to 22 hrs by broth microdilution method
Enterococcus durans = experiment: Antimicrobial activity against Enterococcus durans clinical isolate after 18 to 22 hrs by broth microdilution method
Enterococcus gallinarum = experiment: Antimicrobial activity against Enterococcus gallinarum clinical isolate after 18 to 22 hrs by broth microdilution method
Streptococcus agalactiae = experiment: Antimicrobial activity against Streptococcus agalactiae clinical isolate after 18 to 22 hrs by broth microdilution method
Citrobacter koseri = experiment: Antimicrobial activity against Citrobacter koseri clinical isolate after 18 to 22 hrs by broth microdilution method
Enterobacter cloacae [11] = experiment: Antimicrobial activity against Enterobacter cloacae clinical isolate after 18 to 22 hrs by broth microdilution method
Escherichia coli [12] = experiment: Antimicrobial activity against class A extended spectrum beta-lactamase- and class D OXA- producing Escherichia coli clinical isolate after 18 to 22 hrs by broth microdilution method
Escherichia coli [13] = experiment: Antimicrobial activity against class A extended spectrum beta-lactamase- producing Escherichia coli clinical isolate after 18 to 22 hrs by broth microdilution method
Escherichia coli [14] = experiment: Antimicrobial activity against AmpC beta-lactamase-producing Escherichia coli clinical isolate after 18 to 22 hrs by broth microdilution method
Enterobacter cloacae [15] = experiment: Antimicrobial activity against AmpC beta-lactamase-producing Enterobacter cloacae clinical isolate after 18 to 22 hrs by broth microdilution method
Klebsiella aerogenes = experiment: Antimicrobial activity against Enterobacter aerogenes clinical isolate after 18 to 22 hrs by broth microdilution method
Citrobacter freundii = experiment: Antimicrobial activity against Citrobacter freundii clinical isolate after 18 to 22 hrs by broth microdilution method
Klebsiella pneumoniae [16] = experiment: Antimicrobial activity against class A extended spectrum beta-lactamase- producing Klebsiella pneumoniae clinical isolate after 18 to 22 hrs by broth microdilution method
Klebsiella pneumoniae [17] = experiment: Antimicrobial activity against class A extended spectrum beta-lactamase- and class D OXA- producing Klebsiella pneumoniae clinical isolate after 18 to 22 hrs by broth microdilution method
Klebsiella pneumoniae [18] = experiment: Antimicrobial activity against AmpC- producing Klebsiella pneumoniae clinical isolate after 18 to 22 hrs by broth microdilution method
Klebsiella oxytoca = experiment: Antimicrobial activity against Klebsiella oxytoca clinical isolate after 18 to 22 hrs by broth microdilution method
Serratia marcescens = experiment: Antimicrobial activity against Serratia marcescens clinical isolate after 18 to 22 hrs by broth microdilution method
Morganella morganii = experiment: Antimicrobial activity against Morganella morganii clinical isolate after 18 to 22 hrs by broth microdilution method
Proteus vulgaris = experiment: Antimicrobial activity against Proteus vulgaris clinical isolate after 18 to 22 hrs by broth microdilution method
Providencia rettgeri = experiment: Antimicrobial activity against Providencia rettgeri clinical isolate after 18 to 22 hrs by broth microdilution method
Providencia stuartii = experiment: Antimicrobial activity against Providencia stuartii clinical isolate after 18 to 22 hrs by broth microdilution method
[19] = system: Acinetobacter calcoaceticus; experiment: Antimicrobial activity against Acinetobacter calcoaceticus clinical isolate after 18 to 22 hrs by broth microdilution method
Acinetobacter baumannii = experiment: Antimicrobial activity against Acinetobacter baumannii clinical isolate after 18 to 22 hrs by broth microdilution method
[20] = system: Acinetobacter haemolyticus; experiment: Antimicrobial activity against Acinetobacter haemolyticus clinical isolate after 18 to 22 hrs by broth microdilution method
Acinetobacter johnsonii = experiment: Antimicrobial activity against Acinetobacter johnsonii clinical isolate after 18 to 22 hrs by broth microdilution method
Acinetobacter lwoffii = experiment: Antimicrobial activity against Acinetobacter lwoffii clinical isolate after 18 to 22 hrs by broth microdilution method

CCN1CCN(C(=O)N[C@@H](C(=O)N[C@@H]2C(=O)N3[C@@H]2SC(C)(C)[C@@H]3C(=O)O)c2ccccc2)C(=O)C1=O [PIPERACILLIN]
0.5 µg/mL: MIC90 [3]
0.25 µg/mL: MIC50 (Moraxella catarrhalis) | MIC50 (Streptococcus pneumoniae [8]) | MIC90 (Streptococcus agalactiae)
2 µg/mL: MIC50 [5] | MIC (Enterococcus faecalis) | MIC50 (Enterococcus faecalis) | MIC50 (Streptococcus pneumoniae [9]) | MIC50 (Providencia rettgeri) | MIC50 (Providencia stuartii)
16 µg/mL: MIC50 (Pseudomonas aeruginosa) | MIC50 (Enterococcus avium) | MIC90 [10] | MIC90 (Enterococcus durans) | MIC90 (Enterococcus gallinarum)
1 µg/mL: MIC90 (Streptococcus pneumoniae [8])
32 µg/mL: MIC90 (Haemophilus influenzae [1]) | MIC50 (Enterococcus faecium [6]) | MIC50 (Citrobacter koseri)
128 µg/mL: MIC90 (Klebsiella aerogenes) | MIC90 [20] | MIC90 (Acinetobacter johnsonii) | MIC90 (Acinetobacter lwoffii)
0.12 µg/mL: MIC50 (Streptococcus agalactiae)
0.06 µg/mL: MIC50 [3] | MIC90 (Streptococcus pyogenes)
4 µg/mL: MIC90 (Enterococcus faecalis) | MIC90 (Streptococcus pneumoniae [9]) | MIC50 [10] | MIC50 (Enterococcus durans) | MIC50 (Enterococcus gallinarum) | MIC50 (Enterobacter cloacae [11]) | MIC50 (Klebsiella aerogenes) | MIC50 (Citrobacter freundii) | MIC50 (Serratia marcescens) | MIC50 [20] | MIC50 (Acinetobacter johnsonii) | MIC50 (Acinetobacter lwoffii)
> 128 µg/mL: MIC90 (Pseudomonas aeruginosa) | MIC90 (Enterococcus faecium [6]) | MIC (Enterococcus faecium [7]) | MIC50 (Enterococcus faecium [7]) | MIC90 (Citrobacter koseri) | MIC90 (Enterobacter cloacae [11]) | MIC (Escherichia coli [12]) | MIC50 (Escherichia coli [12]) | MIC90 (Escherichia coli [12]) | MIC (Escherichia coli [13]) | MIC50 (Escherichia coli [13]) | MIC90 (Escherichia coli [13]) | MIC50 (Escherichia coli [14]) | MIC90 (Escherichia coli [14]) | MIC50 (Enterobacter cloacae [15]) | MIC90 (Enterobacter cloacae [15]) | MIC90 (Citrobacter freundii) | MIC (Klebsiella pneumoniae [16]) | MIC50 (Klebsiella pneumoniae [16]) | MIC90 (Klebsiella pneumoniae [16]) | MIC50 (Klebsiella pneumoniae [17]) | MIC90 (Klebsiella pneumoniae [17]) | MIC50 (Klebsiella pneumoniae [18]) | MIC90 (Klebsiella pneumoniae [18]) | MIC90 (Serratia marcescens) | MIC90 (Morganella morganii) | MIC90 (Proteus vulgaris) | MIC50 [19] | MIC90 [19] | MIC50 (Acinetobacter baumannii) | MIC90 (Acinetobacter baumannii)
8 µg/mL: MIC50 (Haemophilus influenzae [1]) | MIC90 (Moraxella catarrhalis) | MIC50 [4] | MIC90 [5] | MIC50 (Klebsiella oxytoca) | MIC50 (Morganella morganii)
64 µg/mL: MIC90 [4] | MIC90 (Enterococcus avium) | MIC90 (Klebsiella oxytoca) | MIC50 (Proteus vulgaris)
0.03 µg/mL: MIC90 (Haemophilus influenzae [2]) | MIC50 (Streptococcus pyogenes)
0.015 µg/mL: MIC50 (Haemophilus influenzae [2])
